For one data set, the system named is NCI-H322M. The data set is described as follows: NCI60 screen cytotoxicity. The class given is cell-based. The note with it: Homo sapiens, Lung cancer, read-out: Compound B1 EC50.
The next data set deals with OVCAR-8. The data set is described as follows: NCI60 screen cytotoxicity. As to conditions: Homo sapiens, Ovarian cancer, read-out: Compound B1 EC50. The class given is cell-based.
A further data set deals with M14. The data set is described as follows: NCI60 screen cytotoxicity. The class given is cell-based. As to conditions: Homo sapiens, Melanoma, read-out: Compound B1 EC50.
The test system of another data set is SK-MEL-2. The data set is described as follows: NCI60 screen cytotoxicity. The class given is cell-based. The note with it: Homo sapiens, Melanoma, read-out: Compound B1 EC50.
The next data set has as its system UACC-257. The data set is described as follows: NCI60 screen cytotoxicity. The class given is cell-based. The note with it: Homo sapiens, Melanoma, read-out: Compound B1 EC50.
Another data set deals with SF-295. The data set is described as follows: NCI60 screen cytotoxicity. It counts as cell-based. As to conditions: Homo sapiens, CNS, read-out: Compound B1 EC50.
The test system of data set [1] is poly-ubiquitinated proteins. The data set is described as follows: Western blot of poly-ubiquitinated proteins in MM1.S cells. It counts as cell-based. As to conditions: SDS-PAGE immunoblot. As for the experimental part: MM1.S cells were treated with Compound B1 (FIG. 1A), Compound AA (FIG. 1B) and Compound E1 (FIG. 1C) for indicated periods of time. Following treatment, the cells were harvested, and the lysates resolved on SDS-PAGE. Transferred membranes were blotted with antibodies as indicated. Actin was used as loading control.
Protein analysis by Western blot. At the end of treatment period, the cells were lysed with M-PER mammalian protein extraction reagent (ThermoFisher Scientific) supplemented with protease inhibitors. Equal protein amounts were resolved on pre-cast SDS-PAGE (ThermoFisher Scientific) and transferred to a PVDF membrane. The membrane was immunoblotted with antibodies as indicated. The following antibodies were used: Ub MAb (SC-8017, Santa-Cruz), ATF4, ATF6, phospho JNK, JNK (Cell signaling); eIF2alpha, phospho eIF2alpha (Novus).
For orientation: In western blotting, separated proteins are transferred to a membrane and probed.

A further data set relates to proteasome. As to the kind of experiment: Proteasome activity (Proteasome-GLO) in intact MM1.S cells. It counts as cell-based. As to conditions: 3 hr at 37° C. As for the experimental part:
Proteasome activity was measured in intact MM1.S cells as cleavage of peptide substrates, specific for Trypsin like (TL), Chemotrypsin like (CTL) and Caspase like (PL) activities of the proteasome following treatment with Compound B1, Compound AA or Bortezomib (BTZ) at ˜EC50 concentrations for 3 hr at 37° C. BTZ was used as positive control.
Proteasome activity. The assay was performed only when cell viability is ≥90%. Cells were seeded in 96-well white clear bottom plates and treated with diluted compounds or vehicle control in triplicates for 3 hours at various concentrations. Catalytic activity was measured using three luminogenic proteasome substrates: Suc-LLVY-aminoluciferin (Succinyl-leucine-leucine-valine-tyrosine-aminoluciferin), Z-LRR-aminoluciferin (Z-leucine-arginine-arginine-aminoluciferin) and Z-nLPnLD-aminoluciferin (Z-norleucine-proline-norleucine-aspartate-aminoluciferin) for the chymotrypsin-like, trypsin-like and caspase-like activities, respectively (Proteasome-GLO, Promega). The emitted light was proportional to the proteasomal activity. Catalytic activity was calculated as the percent activity from control vehicle-treated cells.
MM1.S cells, were treated with Compound B1, Compound AA or Bortezomib (BTZ) at various concentrations for 3 hr at 37° C. […] Proteasome activity was measured by cleavage of proteasome-specific peptide substrates for TL, CTL and PL activities.

The test system of a further data set is MM1.S xenograft. As to the kind of experiment: MM1.S subcutaneous flank xenograft in athymic nude mice. The class given is in vivo. As to conditions: for MM tumor growth compared to vehicle control / body weight % changes: TIW for 21 days; for Blood chemistry profiles (liver or kidney toxicity): TIW, treated mice. The source says: FIG. 4A-4D depicts the growth inhibition of MM1.S xenograft in nude mice by Compound B1 (FIG. 4A, FIG. 4B) and Compound AA (FIG. 4C, FIG. 4D). FIG. 4A and FIG. 4C show tumor growth inhibition observed at end point measurements by Compound B1 and AA respectively. […] MM.1S cells (5×10^6 cells/mouse) were implanted in the rear flank of mail mice (6 weeks of age at the time of tumor implantation). On Day 20-23, mice were randomized for equivalent distribution of tumor volumes to treatment groups (n=5/group) and treated IV with vehicle, compound B1 (FIG. 4A) and compound AA (FIG. 4C), three time a week (TIW) for 21 days. Data are presented as mean tumor volume±SD. Body weight % changes in treated animals observed during the course of the study for compound B1 (FIG. 4B) and Compound AA (FIG. 4D).
Animal xenograft models. MM1.S, HCT-116, SW620 cell lines were purchased from ATCC and used for xenograft model. The cells were cultured in RPMI medium (Sigma-Aldrich) supplemented with 10% fetal bovine serum (FBS) and divided for up to 5 passages. Shortly prior to injection, cell suspension was mixed with Matrigel at 1:1 (V/V) and injected subcutaneously to the rear flank area of male nude athymic 6 weeks old mice to obtain administration of 5×10^6 cells/animal. On day 20-23, when tumor volume reached 100-150 mm^3, mice were randomized for equivalent distribution of tumor volumes to treatment groups (n=5/group) and treated via intravenous injection.

For data set [2], the system named is PBMCs from healthy donors. The data set is described as follows: In-vitro safety in PBMCs from healthy donors (ATPlite viability). The class given is cell-based. The note with it: for therapeutic window, EC50 (PBMC)/EC50 (MM1.S) ratio: 5 healthy donor PBMC samples, viability 48 h later; for therapeutic window, EC50 (PBMC)/EC50 (MM1.S) ratio / cytotoxicity to PBMCs from healthy donors: 6 h treatment; for sensitivity of MM1.S cells versus PBMCs from healthy donors: 6 hr exposure, viability following 48 h of incubation; for cytotoxicity to PBMCs from healthy donors: viability 48 h later (ATPlight assay). How it is done: FIG. 5 depicts the in-vitro safety of Compound B1 and Compound AA in Peripheral Blood Mononuclear Cells (PBMCs) from healthy donors respectively. MM1.S cells and normal PBMCs from healthy donors were treated with various concentrations of indicated compounds for 6 h and then analyzed 48 h later for cell viability (ATPlight assay). […] Calculated therapeutic windows: […], generated from 5 healthy donor PBMC samples, based on mean viability data.
PBMCs from healthy donors were exposed to Compound B1 and Compound AA for 6 hr and analyzed for viability by ATPight following 48 h of incubation. Results are representative of PBMCs from 5 healthy volunteers (FIG. 5). EC50 (PBMC)/EC50 (MM1.S) ratio, generated from 5 healthy donor PBMC samples, is shown for Compound B1, Compound AA and other UPS inhibitors [ixazomib, Bortezomib (BTZ) and CB5083].

The subject of data set [3] is autophagic vacuoles in MM1.S cells. The data set is described as follows: Autophagy quantification with CYTO-ID dye, flow cytometry. It counts as cell-based. As to conditions: 0.2 μM, 5 hours, vs vehicle. How it is done: MM1.S cells were treated with 0.2 μM Compound B1 or vehicle (DMSO) for 5 h. Detection of autophagy vesicles was done by CYTO-ID® green autophagy dye that selectively labels autophagic vacuoles. The samples were analyzed using flow cytometer and the data were plotted on histogram: cell counts vs. FITC fluorescence intensity.
Autophagy Quantification: Quantification of autophagosomes were done with CytoID (ENZO). CYTO-ID® Autophagy Detection Kit measures autophagic vacuoles and monitors autophagic flux in live cells using a dye that selectively labels autophagic vacuoles. The probe is a cationic amphiphilic tracer dye that rapidly partitions into cells in a similar manner as drugs that induce phospholipidosis. MM1.S cells were treated with Compound B1 or vehicle for 5 hours. Following treatment period the cells were harvested and stained with CytoID dye according to manufacturer instructions. Autophagosomes were analyzed and quantified using flow cytometer (Miltenyi). Data of cell counts were plotted as FITC (FL1) fluorescence intensity.
A general note: Flow cytometry measures light scatter and fluorescence of single cells or particles in a stream.

One may read the EC50 as the concentration needed to bring the measured effect to its halfway point. For the compound `CN(C)CC(=O)NCC(=O)N1C/C(=C\c2ccc(C#N)cc2)C(=O)/C(=C/c2ccc(C#N)cc2)C1` [Compound B1], the EC50 was 300 to 1000 nM in the data set on NCI-H322M; below 300 nM with OVCAR-8; below 300 nM with M14; below 300 nM in the data set with SK-MEL-2; 300 to 1000 nM with UACC-257; below 300 nM in the data set with SF-295. Besides, the “accumulation of poly-ubiquitinated proteins” value in data set [1] is “observable accumulation of poly-ubiquitinated proteins”. Also, the “inhibition of the enzymatic functions of the proteasome (TL, CTL and PL activities)” value with proteasome was “does not Inhibit”. In addition, the “MM tumor growth compared to vehicle control” value in the data set with MM1.S xenograft (5 mg/kg IV) is given as “significantly inhibited MM tumor growth”. For the same compound, the “body weight % changes” value with MM1.S xenograft (5 mg/kg IV) is recorded as “No significant weight loss”. In the data set on MM1.S xenograft (5 mg/kg IV), the “Blood chemistry profiles (liver or kidney toxicity)” value is “no clinical abnormalities suggestive of liver or kidney toxicity”. In addition, the “therapeutic window, EC50 (PBMC)/EC50 (MM1.S) ratio” value in data set [2] was “larger Tx window than competing UPS inhibitors”. Moreover, in data set [2], the “sensitivity of MM1.S cells versus PBMCs from healthy donors” value was “more sensitive”. The “cytotoxicity to PBMCs from healthy donors” value in data set [2] was “less cytotoxic to PBMCs from healthy donors than Ixazomib, Bortezomib (BTZ) and CB5083”. Besides, the “autophagosomal vesicles (CYTO-ID fluorescence)” value in data set [3] was “significantly lower fluorescent dye then vehicle treated cells”.
Turning to `CN(C)CCCS(=O)(=O)N1C/C(=C\c2ccc(C#N)cc2)C(=O)/C(=C/c2ccc(C#N)cc2)C1` [Compound AA], in data set [1], the “accumulation of poly-ubiquitinated proteins” value is given as “observable accumulation of poly-ubiquitinated proteins”. For the same compound, in the data set on proteasome, the “inhibition of the enzymatic functions of the proteasome (TL, CTL and PL activities)” value is “does not Inhibit”. In addition, in the data set with MM1.S xenograft (4 mg/kg IV), the “MM tumor growth compared to vehicle control” value is “significantly inhibited MM tumor growth”, the “body weight % changes” value is “No significant weight loss” and the “Blood chemistry profiles (liver or kidney toxicity)” value is “no clinical abnormalities suggestive of liver or kidney toxicity”. In [2], the “therapeutic window, EC50 (PBMC)/EC50 (MM1.S) ratio” value was “larger Tx window than competing UPS inhibitors”; the “sensitivity of MM1.S cells versus PBMCs from healthy donors” value is listed as “more sensitive”; the “cytotoxicity to PBMCs from healthy donors” value is “less cytotoxic to PBMCs from healthy donors than Ixazomib, Bortezomib (BTZ) and CB5083”.

These data come from patent US20200399262A1, “COMPOUNDS FOR INHIBITING PROTEIN DEGRADATION AND METHODS OF USE THEREOF IN THE TREATMENT OF CANCER” (PI Therapeutics Ltd, priority 2018, published 2020).
